Assay [1] concerns 5XFAD mice. The assay is described as follows: Open-field test of 5XFAD mice. Format: in vivo, mouse. The conditions noted are these: Rg2-treated vs vehicle-treated 5XFAD mice.
Assay [2] concerns mouse models of AD. The conditions noted are these: cited from earlier work.

In the case of `CC(C)=CCC[C@](C)(O)[C@H]1CC[C@]2(C)[C@@H]1[C@H](O)C[C@@H]1[C@@]3(C)CC[C@H](O)C(C)(C)[C@@H]3[C@@H](O[C@@H]3O[C@H](CO)[C@@H](O)[C@H](O)[C@H]3O[C@@H]3O[C@@H](C)[C@H](O)[C@@H](O)[C@H]3O)C[C@]12C` [Rg2, ginsenoside Rg2], the “locomotor activity (distance travelled)” value in assay [1] is given as “no rescue”. In assay [2], the “amyloid burden and memory deficit” value is “reduces amyloid burden and memory deficit”.

Source of the values: US11241436B2, “Autophagy inducers for treatment of CNS conditions” (Northwestern University, priority 2017, dated 2022).
